Patent publication US11505533B2, “Metabolically stable N-acylaminooxadiazoles useful as antibacterial agents” (MICROBIOTIX, INC., priority 2017, dated 2022)
Converted amounts (≈) assume the structure as drawn. “Also recorded” adds a separate entry of the source. Where two headings read alike, the source gives them in different places.

How the values were obtained:
[1] = test system: S. aureus ATCC 25923 (MSSA. osteomyelitis isolate); format: cell-based; conditions: Staphylococcus aureus
[2] = Mammalian cell cytotoxicity
[3] = test system: E. coli (700, TolC+) efflux pos; format: cell-based; conditions: Escherichia coli
MRSA-1094 (MDR) = format: cell-based; conditions: Staphylococcus aureus
Mouse serum stability = conditions: 5 μM, 37° C., 4 h
[4] = Mouse serum binding, equilibrium dialysis
S. pneumoniae 49619 = format: cell-based; conditions: Streptococcus pneumoniae
N. gonorrhoeae 49226 = format: cell-based; conditions: Neisseria gonorrhoeae
E. coli TolC(−) [5] = assay: TolC(−) MIC (NB); format: cell-based; conditions: Escherichia coli, read-out: TolC(−) MIC (μM)(NB)
[6] = test system: Legionella pneumophila 33153; assay: microbe, parasite or virus in culture; format: cell-based
[7] = Aqueous solubility, nephelometry; conditions: water, kinetic from dmso stock
MRSA USA 300 (BAA-1717) = format: cell-based; conditions: Staphylococcus aureus
[8] = Microsomal stability + NADPH; conditions: mouse liver microsomes, 0.5 hr at 37° C.
[9] = test system: Haemophilus influenza 35056; format: cell-based
[10] = test system: Moraxella catarrhalis 8176; format: cell-based
M. pneumoniae 15531 = format: cell-based; conditions: Mycoplasmoides pneumoniae
[11] = Preliminary PK studies in mice; conditions: IV or IP dosing at 10 mg/kg, data not shown
trans-translation = conditions: dose response assay; Ramadoss et al., PNAS 2013; cited from earlier work
mammalian systems = conditions: even in the context of prolonged exposure; cited from earlier work
[12] = Stability in liver microsomes in vitro; conditions: mouse or human liver microsomes in vitro; data not shown
translation = conditions: specific inhibitor of trans-translation; cited from earlier work
[13] = test system: S. aureus WTBF-19 (MSSA. osteomyelitis isolate); format: cell-based; conditions: Staphylococcus aureus
MRSA N315 NRS-70 = format: cell-based; conditions: Staphylococcus aureus
[14] = test system: N. gonorrhoeae H041 (MDR including AZM and CTX); format: cell-based; conditions: Neisseria gonorrhoeae
E. coli TolC(−) [15] = conditions: MIC in the presence of 10% fetal calf serum versus without
B. anthracis = assay: microbe, parasite or virus in culture; format: cell-based; conditions: Bacillus anthracis
Brucella suis = assay: microbe, parasite or virus in culture; format: cell-based
Yersinia pestis = assay: microbe, parasite or virus in culture; format: cell-based
[16] = test system: Franciscella tularensis (Schu13); assay: organism not typed; format: cell-based
Franciscella tularensis = assay: organism not typed; format: cell-based
[17] = test system: S. aureus (ATCC 35556, spec, kan-res); format: cell-based; conditions: Staphylococcus aureus, ATCC35556
[18] = test system: S. aureus (MRSA-1234547263, Cip-res); format: cell-based; conditions: Staphylococcus aureus
N. gonorrhoeae = assay: MIC90 determination, clinical isolates; format: cell-based; conditions: Neisseria gonorrhoeae
Caco-2 permeability = format: in vitro ADME; conditions: human, direction not given
Text: Res., 15(5): 726-733 (1998).

[19] = test system: S. aureus NRS-77 (spec-res); format: cell-based; conditions: Staphylococcus aureus, NRS77
[20] = S. aureus ATCC 25923 (MSSA), read-out: MIC
[21] = E. coli (700, TolC+) efflux pos, read-out: MIC
[22] = S. pneumoniae 49619, read-out: MIC
[23] = N. gonorrhoeae 49226, read-out: MIC
[24] = MRSA USA 300 (BAA-1717), read-out: MIC
[25] = Haemophilus influenza 35056, read-out: MIC
[26] = M. pneumoniae 15531, read-out: MIC
[27] = MRSA N315 NRS-70, read-out: MIC
[28] = S. aureus NRS-77 (spec-res), read-out: MIC

Row | SMILES | MIC [1, 20] | CC50 [2] | MIC [3, 21] | MIC (MRSA-1094 (MDR); MRSA-1094 (MDR), read-out: MIC) | Serum Stability (% remain) (Mouse serum stability) | fraction unbound [4] | MIC (S. pneumoniae 49619; [22]) | MIC (N. gonorrhoeae 49226; [23]) | MIC (E. coli TolC(−) [5]) | MIC [6] | solubility [7] | MIC (MRSA USA 300 (BAA-1717); [24]) | Microsomal Stability + NADPH % degraded [8] | MIC [9, 25] | MIC ([10]; read-out: MIC) | MIC (M. pneumoniae 15531; [26]) | MIC ([13]; MSSA) | MIC [1] | MIC [17] | Papp (Caco-2 permeability) | also measured
1 | O=C(Nc1nnc(-c2ccc(F)cc2)o1)c1ccc(OC2CCCC2)cc1 [compound 4293] | 1.15 µg/mL (≈ 3.13 µM) | 31.8 µM | > 36 µg/mL | 0.72 µg/mL (≈ 1.96 µM) | 88% | 0.001 | 4.59 µg/mL (≈ 12.5 µM) | 0.09 µg/mL (≈ 0.245 µM) | 1.39 µM (≈ 0.511 µg/mL) | 0.59 µg/mL (≈ 1.61 µM) | 3.12 µM (≈ 1.15 µg/mL) | 0.29 µg/mL (≈ 0.789 µM) | 59% | 12.2 µg/mL (≈ 33.3 µM) | < 0.02 µg/mL | 18.4 µg/mL (≈ 50.1 µM) | – | – | – | – | –
2 | O=C(Nc1nnc(-c2ccc(F)cc2)o1)c1ccc(Cl)cc1 [KKL-35] | – | – | – | – | – | – | – | – | – | – | – | – | – | – | – | – | – | – | – | – | bioavailability in mice [11]: extremely poor bioavailability; also recorded: undetectable in mouse serum at 6 h; IC50 (trans-translation): 0.9 µM; cytotoxicity (mammalian systems): lack of cytotoxicity; stability in the presence of liver microsomes [12]: poor microsomal stability; also recorded: no detectable material after 5 min; effect on translation (translation): no effect on translation
3 | O=C(Nc1nnc(-c2ccc(F)cc2)o1)N1CCc2ccccc2C1 [compound 4132, N-[5-(4-fluorophenyl)-1,3,4-oxadiazol-2-yl]-3,4-dihydroisoquinoline-2(1H)-carboxamide] | – | 27.2 µM | – | – | >95% | – | – | – | 7.87 µM (≈ 2.66 µg/mL) | 8.46 µg/mL (≈ 25 µM) | 6.25 µM (≈ 2.11 µg/mL) | – | 27% | – | – | – | 4.23 µg/mL (≈ 12.5 µM) | 6.34 µg/mL (≈ 18.7 µM) | 4.23 µg/mL (≈ 12.5 µM) | 65.8 ×10⁻⁶ cm/s | MIC [3]: > 35 µg/mL; MIC (MRSA N315 NRS-70): 6.34 µg/mL (≈ 18.7 µM); MIC (MRSA-1094 (MDR); MRSA): 3.17 µg/mL (≈ 9.37 µM); MIC [14]: 0.13 µg/mL (≈ 0.384 µM); Fold Serum Shift vs. TolC(−) (E. coli TolC(−) [15]): 12.7 fold; MIC (B. anthracis): 4.06 µg/mL (≈ 12 µM); MIC (Brucella suis): 4.23 µg/mL (≈ 12.5 µM); MIC (S. pneumoniae 49619; 49619): 33.8 µg/mL (≈ 99.9 µM); MIC (Yersinia pestis): 8.46 µg/mL (≈ 25 µM); MIC [16]: 0.13 µg/mL (≈ 0.384 µM); MIC90 (Franciscella tularensis): 0.13 µg/mL (≈ 0.384 µM); MIC (N. gonorrhoeae 49226; 49226): 0.18 µg/mL (≈ 0.532 µM); MIC ([18]; MRSA): 3.17 µg/mL (≈ 9.37 µM); MIC90 (N. gonorrhoeae): 0.54 µg/mL (≈ 1.6 µM); MIC (MRSA USA 300 (BAA-1717)): 1.06 µg/mL (≈ 3.13 µM); MIC ([9]; Haemophilus, 35056): 16.9 µg/mL (≈ 50 µM); MIC [10]: 0.034 µg/mL (≈ 0.1 µM); MIC [19]: 3.17 µg/mL (≈ 9.37 µM); MIC (M. pneumoniae 15531; 15531): > 33.8 µg/mL
4 | O=C(Nc1nnc(-c2ccc(F)cc2)o1)c1ccc(OC2CCCCC2)cc1 [compound 4292] | 1.23 µg/mL (≈ 3.22 µM) | 23.7 µM | > 39 µg/mL | 0.75 µg/mL (≈ 1.97 µM) | 82% | < 0.01 | 4.77 µg/mL (≈ 12.5 µM) | 0.1 µg/mL (≈ 0.262 µM) | 1.1 µM (≈ 0.421 µg/mL) | 0.61 µg/mL (≈ 1.6 µM) | 6.25 µM (≈ 2.38 µg/mL) | 0.3 µg/mL (≈ 0.787 µM) | 20% | > 39 µg/mL | < 0.02 µg/mL | 19.1 µg/mL (≈ 50.1 µM) | – | – | 0.95 µg/mL (≈ 2.49 µM) | 1 ×10⁻⁶ cm/s | MIC ([13]; S. aureus WTBF-19 (MSSA), read-out: MIC): 1.19 µg/mL (≈ 3.12 µM); MIC (MRSA N315 NRS-70; [27]): 1.36 µg/mL (≈ 3.57 µM); MIC ([18]; S. aureus (MRSA-1234547263, Cip-res), read-out: MIC): 0.67 µg/mL (≈ 1.76 µM); MIC [19, 28]: 1.17 µg/mL (≈ 3.07 µM)
5 | O=C(Nc1nnc(-c2ccc(F)cc2)o1)c1ccc(Oc2ccccc2)nc1 [compound 4237, 2-(6-phenoxynicotinamido)-5-(4-fluorophenyl)-1,3,4-oxadiazole] | – | > 100 µM | > 39 µg/mL | – | >95% | 0.002 | 4.7 µg/mL (≈ 12.5 µM) | 0.75 µg/mL (≈ 1.99 µM) | 1.56 µM (≈ 0.588 µg/mL) | 0.87 µg/mL (≈ 2.31 µM) | 6.25 µM (≈ 2.35 µg/mL) | 2.1 µg/mL (≈ 5.58 µM) | 9% | 9.41 µg/mL (≈ 25 µM) | 0.06 µg/mL (≈ 0.159 µM) | 18.8 µg/mL (≈ 50 µM) | 2.35 µg/mL (≈ 6.24 µM) | 2.35 µg/mL (≈ 6.24 µM) | 2.35 µg/mL (≈ 6.24 µM) | 12.7 ×10⁻⁶ cm/s | MIC (MRSA N315 NRS-70; [27]): 4.7 µg/mL (≈ 12.5 µM); MIC (MRSA-1094 (MDR); MRSA): 2.35 µg/mL (≈ 6.24 µM); MIC [16]: 0.75 µg/mL (≈ 1.99 µM); MIC90 (Franciscella tularensis): 1.51 µg/mL (≈ 4.01 µM); MIC ([18]; MRSA): 2.35 µg/mL (≈ 6.24 µM); MIC [19, 28]: 2.96 µg/mL (≈ 7.87 µM)
